Active and inactive are the calls of the source. The rule behind the calls is not given here.
Key:
Leishmania donovani [1] = test: Antileishmanial activity against Leishmania donovani LV82 promastigotes assessed as inhibition of parasite proliferation; type: functional, organism-based
Leishmania major [2] = test: Effect on Ergostatetraenol level in Leishmania major LV39 promastigotes assessed as fold change at 25 uM incubated for 48 hrs by LC-MS/MS analysis; type: functional
Leishmania major [3] = test: Effect on 14-Methylfecosterol level in Leishmania major LV39 promastigotes assessed as fold change at 25 uM incubated for 48 hrs by LC-MS/MS analysis; type: functional
Leishmania major [4] = test: Effect on 4,14-Dimethylzymosterol level in Leishmania major LV39 promastigotes assessed as fold change at 25 uM incubated for 48 hrs by LC-MS/MS analysis; type: functional
Leishmania major [5] = test: Effect on lanosterol level in Leishmania major LV39 promastigotes assessed as fold change at 25 uM incubated for 48 hrs by LC-MS/MS analysis; type: functional
Leishmania major [6] = test: Effect on 4-Methylzymosterol level in Leishmania major LV39 promastigotes assessed as fold change at 25 uM incubated for 48 hrs by LC-MS/MS analysis; type: functional
Leishmania major [7] = test: Effect on 7-Dehydrodesmosterol level in Leishmania major LV39 promastigotes assessed as fold change at 25 uM incubated for 48 hrs by LC-MS/MS analysis; type: functional
Leishmania major [8] = test: Effect on 14-methylzymosterol level in Leishmania major LV39 promastigotes assessed as fold change at 25 uM incubated for 48 hrs by LC-MS/MS analysis; type: functional
Leishmania major [9] = test: Effect on Cholesta-7,24-dienol level in Leishmania major LV39 promastigotes assessed as fold change at 25 uM incubated for 48 hrs by LC-MS/MS analysis; type: functional
Leishmania major [10] = test: Effect on 5-Dehydroepisterol level in Leishmania major LV39 promastigotes assessed as fold change at 25 uM incubated for 48 hrs by LC-MS/MS analysis; type: functional
Leishmania major [11] = test: Effect on Zymosterol level in Leishmania major LV39 promastigotes assessed as fold change at 25 uM incubated for 48 hrs by LC-MS/MS analysis; type: functional
Leishmania major [12] = test: Effect on Fecosterol level in Leishmania major LV39 promastigotes assessed as fold change at 25 uM incubated for 48 hrs by LC-MS/MS analysis; type: functional
Leishmania major [13] = test: Effect on Episterol level in Leishmania major LV39 promastigotes assessed as fold change at 25 uM incubated for 48 hrs by LC-MS/MS analysis; type: functional
Leishmania major [14] = test: Effect on Cholesterol level in Leishmania major LV39 promastigotes assessed as fold change at 25 uM incubated for 48 hrs by LC-MS/MS analysis; type: functional
Leishmania major [15] = test: Effect on Ergosta-5,7-dienol level in Leishmania major LV39 promastigotes assessed as fold change at 25 uM incubated for 48 hrs by LC-MS/MS analysis; type: functional
Leishmania major [16] = test: Effect on Ergosterol level in Leishmania major LV39 promastigotes assessed as fold change at 25 uM incubated for 48 hrs by LC-MS/MS analysis; type: functional
Leishmania major [17] = test: Effect on 4-CH2OH-LS sterol level in Leishmania major LV39 promastigotes assessed as fold change at 25 uM incubated for 48 hrs by LC-MS/MS analysis; type: functional
Leishmania donovani [18] = test: Antileishmanial activity against Leishmania donovani LV82 promastigotes infected in female mouse Peritoneal macrophage cells incubated for 72 hrs by DAPI staining based analysis; type: functional, organism-based
Leishmania major [19] = test: Effect on Cholesterol level in Leishmania major LV39 promastigotes assessed as fold change at 2 uM incubated for 48 hrs by LC-MS/MS analysis; type: functional
Leishmania major [20] = test: Effect on 5-Dehydroepisterol level in Leishmania major LV39 promastigotes assessed as fold change at 2 uM incubated for 48 hrs by LC-MS/MS analysis; type: functional
Leishmania major [21] = test: Effect on 4,14-Dimethylzymosterol level in Leishmania major LV39 promastigotes assessed as fold change at 2 uM incubated for 48 hrs by LC-MS/MS analysis; type: functional
Leishmania major [22] = test: Effect on 14-methylzymosterol level in Leishmania major LV39 promastigotes assessed as fold change at 2 uM incubated for 48 hrs by LC-MS/MS analysis; type: functional
Leishmania major [23] = test: Effect on lanosterol level in Leishmania major LV39 promastigotes assessed as fold change at 2 uM incubated for 48 hrs by LC-MS/MS analysis; type: functional
Leishmania major [24] = test: Effect on Ergosta-5,7-dienol level in Leishmania major LV39 promastigotes assessed as fold change at 2 uM incubated for 48 hrs by LC-MS/MS analysis; type: functional
Leishmania major [25] = test: Effect on 14-Methylfecosterol level in Leishmania major LV39 promastigotes assessed as fold change at 2 uM incubated for 48 hrs by LC-MS/MS analysis; type: functional
Leishmania major [26] = test: Effect on 4-CH2OH-LS sterol level in Leishmania major LV39 promastigotes assessed as fold change at 2 uM incubated for 48 hrs by LC-MS/MS analysis; type: functional
Leishmania major [27] = test: Effect on Ergosterol level in Leishmania major LV39 promastigotes assessed as fold change at 2 uM incubated for 48 hrs by LC-MS/MS analysis; type: functional
Leishmania donovani [28] = test: Antileishmanial activity against Leishmania donovani overexpressing CYP5122A1 at 1.2 to […]; type: functional, organism-based; conditions: dose 1.2-3.7 µM
Leishmania major [29] = test: Effect on Episterol level in Leishmania major LV39 promastigotes assessed as fold change at 17 uM incubated for 48 hrs by LC-MS/MS analysis; type: functional
Leishmania major [30] = test: Effect on Zymosterol level in Leishmania major LV39 promastigotes assessed as fold change at 17 uM incubated for 48 hrs by LC-MS/MS analysis; type: functional
Leishmania major [31] = test: Effect on 14-methylzymosterol level in Leishmania major LV39 promastigotes assessed as fold change at 17 uM incubated for 48 hrs by LC-MS/MS analysis; type: functional
Leishmania major [32] = test: Effect on Cholesta-7,24-dienol level in Leishmania major LV39 promastigotes assessed as fold change at 17 uM incubated for 48 hrs by LC-MS/MS analysis; type: functional
Leishmania major [33] = test: Effect on Fecosterol level in Leishmania major LV39 promastigotes assessed as fold change at 17 uM incubated for 48 hrs by LC-MS/MS analysis; type: functional
Leishmania major [34] = test: Effect on Cholesterol level in Leishmania major LV39 promastigotes assessed as fold change at 17 uM incubated for 48 hrs by LC-MS/MS analysis; type: functional
Leishmania major [35] = test: Effect on Ergostatetraenol level in Leishmania major LV39 promastigotes assessed as fold change at 17 uM incubated for 48 hrs by LC-MS/MS analysis; type: functional
Leishmania major [36] = test: Effect on lanosterol level in Leishmania major LV39 promastigotes assessed as fold change at 17 uM incubated for 48 hrs by LC-MS/MS analysis; type: functional
Leishmania major [37] = test: Effect on 4-Methylzymosterol level in Leishmania major LV39 promastigotes assessed as fold change at 17 uM incubated for 48 hrs by LC-MS/MS analysis; type: functional
Leishmania major [38] = test: Effect on 7-Dehydrodesmosterol level in Leishmania major LV39 promastigotes assessed as fold change at 17 uM incubated for 48 hrs by LC-MS/MS analysis; type: functional
Leishmania major [39] = test: Effect on Ergosta-5,7-dienol level in Leishmania major LV39 promastigotes assessed as fold change at 17 uM incubated for 48 hrs by LC-MS/MS analysis; type: functional
Leishmania major [40] = test: Effect on 4-CH2OH-LS sterol level in Leishmania major LV39 promastigotes assessed as fold change at 17 uM incubated for 48 hrs by LC-MS/MS analysis; type: functional
Leishmania major [41] = test: Effect on 4,14-Dimethylzymosterol level in Leishmania major LV39 promastigotes assessed as fold change at 17 uM incubated for 48 hrs by LC-MS/MS analysis; type: functional
Leishmania major [42] = test: Effect on Ergosterol level in Leishmania major LV39 promastigotes assessed as fold change at 17 uM incubated for 48 hrs by LC-MS/MS analysis; type: functional
Leishmania major [43] = test: Effect on 5-Dehydroepisterol level in Leishmania major LV39 promastigotes assessed as fold change at 17 uM incubated for 48 hrs by LC-MS/MS analysis; type: functional
Leishmania donovani [44] = test: Antileishmanial activity against Leishmania donovani promastigotes infected in mouse J774 cells assessed as inhibition of parasite proliferation; type: functional, organism-based
[45] = Inhibition of full length his-tagged recombinant Leishmania donovani CYP51-32c

Compound: O=C(Nc1ccc(F)cc1)N1CCN(Cc2ccncc2)CC1
- EC50 (Leishmania donovani [1]): > 100 µM

Compound: OC(Cn1cncn1)(Cn1cncn1)c1ccc(F)cc1F [FLUCONAZOLE]
- fold change (FC) (Leishmania major [2]): 0.37
- fold change (FC) (Leishmania major [3]): 229
- fold change (FC) (Leishmania major [4]): 1.8
- fold change (FC) (Leishmania major [5]): 0.47
- fold change (FC) (Leishmania major [6]): 0.6
- fold change (FC) (Leishmania major [7]): 0.044
- fold change (FC) (Leishmania major [8]): 4.5
- fold change (FC) (Leishmania major [9]): 0.38
- fold change (FC) (Leishmania major [10]): 0.25
- fold change (FC) (Leishmania major [11]): 0.39
- fold change (FC) (Leishmania major [12]): 0.6
- fold change (FC) (Leishmania major [13]): 0.6
- fold change (FC) (Leishmania major [14]): 0.53
- fold change (FC) (Leishmania major [15]): 0.17
- fold change (FC) (Leishmania major [16]): 0.31
- fold change (FC) (Leishmania major [17]): 0.42

Compound: COc1cc(NC(=O)N2CCN(Cc3ccncc3)CC2)cc(OC)c1
- EC50 (Leishmania donovani [1]): > 100 µM

Compound: O=C(Nc1ccc(Cl)cc1)N1CCN(Cc2ccncc2)CC1
- EC50 (Leishmania donovani [1]): > 100 µM

Compound: COc1cccc(NC(=O)N2CCN(Cc3ccncc3)CC2)c1
- EC50 (Leishmania donovani [1]): > 100 µM

Compound: O=C(Nc1cc(C(F)(F)F)cc(C(F)(F)F)c1)N1CCN(Cc2ccncc2)CC1
- EC50 (Leishmania donovani [18]): > 50 µM

Compound: O=C(Nc1ccccc1)N1CCN(Cc2ccncc2)CC1
- EC50 (Leishmania donovani [1]): > 100 µM

Compound: CC[C@@H]([C@H](C)O)n1ncn(-c2ccc(N3CCN(c4ccc(OC[C@@H]5CO[C@@](Cn6cncn6)(c6ccc(F)cc6F)C5)cc4)CC3)cc2)c1=O [POSACONAZOLE]
- fold change (FC) (Leishmania major [19]): 1.3
- fold change (FC) (Leishmania major [20]): 0.02
- fold change (FC) (Leishmania major [21]): 10
- fold change (FC) (Leishmania major [22]): 3.1
- fold change (FC) (Leishmania major [23]): 3.6
- fold change (FC) (Leishmania major [24]): 0.022
- fold change (FC) (Leishmania major [25]): 321
- fold change (FC) (Leishmania major [26]): 1.4
- fold change (FC) (Leishmania major [27]): 0.027

Compound: O=C(Nc1ccc(C(F)(F)F)cc1)N1CCN(Cc2ccncc2)CC1
- EC50 (Leishmania donovani [1]): > 50 µM

Compound: O=C(Nc1ccc(OCc2cc(C(F)(F)F)cc(C(F)(F)F)c2)cc1)N1CCN(CCc2ccncc2)CC1
- Activity (Leishmania donovani [28]): Active

Compound: O=C(Nc1ccc(OCc2ccccc2)cc1)N1CCN(CCc2ccncc2)CC1
- EC50 (Leishmania donovani [1]): > 100 µM

Compound: COc1ccc(NC(=O)N2CCN(Cc3ccncc3)CC2)cc1
- EC50 (Leishmania donovani [1]): > 100 µM

Compound: Cc1ccccc1NC(=O)N1CCN(Cc2ccncc2)CC1
- EC50 (Leishmania donovani [1]): > 100 µM

Compound: Cc1ccc(NC(=O)N2CCN(Cc3ccncc3)CC2)cc1
- EC50 (Leishmania donovani [1]): > 100 µM

Compound: Cc1cc(NC(=O)N2CCN(Cc3ccncc3)CC2)cc(C)c1C
- EC50 (Leishmania donovani [1]): > 50 µM

Compound: O=C(Nc1cccc(Cl)c1)N1CCN(Cc2ccncc2)CC1
- EC50 (Leishmania donovani [1]): > 100 µM

Compound: O=C(Nc1ccccc1Cl)N1CCN(Cc2ccncc2)CC1
- EC50 (Leishmania donovani [1]): > 100 µM

Compound: O=C(Nc1ccc(OCc2cc(C(F)(F)F)cc(C(F)(F)F)c2)cc1)N1CCN(CCCc2ccccc2)CC1
- EC50 (Leishmania donovani [1]): > 50 µM

Compound: O=C(Nc1ccc(OCc2cc(C(F)(F)F)cc(C(F)(F)F)c2)cc1)N1CCN(CCn2ccnc2)CC1
- fold change (FC) (Leishmania major [29]): 3.2
- fold change (FC) (Leishmania major [30]): 3.4
- fold change (FC) (Leishmania major [31]): 0.48
- fold change (FC) (Leishmania major [32]): 3.3
- fold change (FC) (Leishmania major [33]): 3.2
- fold change (FC) (Leishmania major [34]): 1.9
- fold change (FC) (Leishmania major [35]): 2.4
- fold change (FC) (Leishmania major [36]): 31
- fold change (FC) (Leishmania major [37]): 3.2
- fold change (FC) (Leishmania major [38]): 0.95
- fold change (FC) (Leishmania major [39]): 0.16
- fold change (FC) (Leishmania major [40]): 1.6
- fold change (FC) (Leishmania major [41]): 1
- fold change (FC) (Leishmania major [42]): 0.42
- fold change (FC) (Leishmania major [43]): 0.69

Compound: CC(C)(C)c1cccc(NC(=O)N2CCN(Cc3ccncc3)CC2)c1
- EC50 (Leishmania donovani [18]): > 50 µM
- EC50 (Leishmania donovani [44]): > 50 µM

Compound: O=C(Nc1ccc(OCc2cc(C(F)(F)F)cc(C(F)(F)F)c2)cc1)N1CCN(CCn2cncn2)CC1
- EC50 (Leishmania donovani [44]): > 50 µM
- EC50 (Leishmania donovani [1]): > 50 µM

Compound: Cc1cccc(NC(=O)N2CCN(Cc3ccncc3)CC2)c1
- EC50 (Leishmania donovani [1]): > 100 µM

Compound: O=C(Nc1cccc(F)c1)N1CCN(Cc2ccncc2)CC1
- EC50 (Leishmania donovani [1]): > 100 µM

Compound: CC(C)Oc1cccc(NC(=O)N2CCN(Cc3ccncc3)CC2)c1
- EC50 (Leishmania donovani [1]): > 50 µM

Compound: O=C(Nc1ccc(OCc2cc(C(F)(F)F)cc(C(F)(F)F)c2)cc1)N1CCN(CCc2ccccc2)CC1
- IC50 [45]: > 100 µM
- EC50 (Leishmania donovani [1]): > 13 µM

Compound: O=C(Nc1cc(F)cc(F)c1)N1CCN(Cc2ccncc2)CC1
- EC50 (Leishmania donovani [1]): > 100 µM

Compound: Cc1cc(C)cc(NC(=O)N2CCN(Cc3ccncc3)CC2)c1
- EC50 (Leishmania donovani [1]): > 50 µM
